Values after ≈ are worked out from the molar mass of the structure shown.
How the values were obtained:
[1] = tested on: Lewis Lung Carcinoma (3LL) Cell Line, subline H-59; assay: XTT cytotoxicity assay, Lewis Lung Carcinoma 3LL (H-59) cells; format: cell-based; details: Mus musculus, read-out: IC50, doxorubicin (concentration producing 50% inhibition of cell growth)
Procedure: A highly metastatic clonal Lewis Lung Carcinoma cell subline H-59 (3LL) was used to evaluate cytotoxic activity of Prep. C and compare it with that of doxorubicin. To this end, the cells were suspended in RPMI 1640 medium supplemented with 10% fetal calf serum, and plated at 2000-3000 cells/well into 96-well microtiter plates. Prep. C in which doxorubicin final concentrations varied from 1 to 10,000 ng/ml was added to the cells and incubated for 2 hours at 37° C. and 5% CO2. The cells were then washed three times with RPMI 1640 and cultured for 4 days. Drug cytotoxicity was determined by a standard XTT assay. To this end, sterile 1 mg/ml XTT solution in RPMI 1640 containing 5 μl/ml of 1.54 μg/ml phenazine methasulfate solution in sterile PBS was added to the cells (100 μl/well) and incubated for 4 to 16 hours at 37° C. and 5% CO2. The absorbance at λ420 was determined using a microplate reader. All the experiments were carried out in triplicate. SEM values were less than 10% (P<0.05). the concentrations of free doxorubicin and doxorubicin in Prep.

[2] = tested on: Lewis Lung Carcinoma (3LL-H59); assay: Metastasis development after i.v. inoculation of 3LL-H59 cells; format: in vivo, Female C57BL/6 mice; details: Dox 5.0 mg/kg, L61 0.25% w/v, PEG8000 1% w/v, Days 1, 4, 7, 10 animals per group
Procedure: A highly metastatic clonal subline H59 of Lewis Lung, Carcinoma (3LL-H59) was used as a model. […] These cells were cultured in D-MEM supplemented with 10% FCS at 37° C. in a humidified atmosphere with 5% CO2. After 7 to 10 passes in culture, the cells in their logarithmic growth phase were harvested with trypsin for the following experiments.
Animals. Female C57BL/6 mice were obtained from Charles River Canada Inc. (St. Constant, Quebec, Canada) and used at 6 to 7 weeks of age. Animals were grouped five per cage with air filter cover under a light (12-h light/dark cycle, light on at 06h00) and temperature-controlled environment (22 ±1° C.). All manipulations of animals were performed under a sterilized laminar. The animals had ad libitum access to Purina Mouse Chow (Pro Lab PMH 4018, Trademark of Agway, Syracuse, N.Y.) and water. […]
At Day 16 after tumor inoculation, the animals were sacrificed and subjected to routine metastasis inspection. All organs were routinely screened, although metastatic formations were normally detected only in the lung. […] The data are expressed as means±SEM for the number of metastatic sites and as the percentage of the animals having metastasis for the incidence of metastasis development. Statistical significance was calculated according to the multiple range test of Duncan-Kramer. […]

COc1cccc2c1C(=O)c1c(O)c3c(c(O)c1C2=O)C[C@@](O)(C(=O)CO)C[C@@H]3O[C@H]1C[C@H](N)[C@H](O)[C@H](C)O1 [Doxorubicin, doxorubicin]
IC50 [1]: 0.11 µg/mL (≈ 0.202 µM) | Incidence (animals having metastasis) ([2]; Day 16): 100% | Number of metast. sites on lung periphery ±SEM ([2]; counted Day 16): 8.90 ± 2.56
